The results in this text go back to ChEMBL document CHEMBL4251742, “Modulating ADME Properties by Fluorination: MK2 Inhibitors with Improved Oral Exposure” (ACS Med Chem Lett, 2018).

Data set [1] can be described thus: Permeability of the compound by PAMPA. The class given is ADME.
The subject of data set [2] is Rattus norvegicus. Kind of data set: (§1) Oral bioavailability in Sprague-Dawley rat at 3 mg/kg administered as single cassette dose by LC-MS/MS analysis. The class given is ADME, organism-based. The conditions noted are these: in vivo.
Data set [3] deals with Rattus norvegicus. Description: Dose normalized AUC in Sprague-Dawley rat at 3 mg/kg, po administered as single cassette dose by LC-MS/MS analysis. The class given is ADME, organism-based. The note with it: in vivo.
The nature of data set [4]: Clearance in Sprague-Dawley rat at 1 mg/kg, iv administered as single cassette dose by LC-MS/MS analysis. The note with it: in vivo. The class given is ADME, organism-based.
In data set [5] the target is T1, MAP kinase-activated protein kinase 2 (Homo sapiens, UniProt P49137). Description: Inhibition of human MK2 using hsp27 peptide biotinyl-AYSRALSRQLSSGVSEIRCOOH as substrate after 45 mins by TR-FRET assay. Background: In TR-FRET formats the signal depends on donor and acceptor labels being close together.
T1 sequence (P49137 whole entry): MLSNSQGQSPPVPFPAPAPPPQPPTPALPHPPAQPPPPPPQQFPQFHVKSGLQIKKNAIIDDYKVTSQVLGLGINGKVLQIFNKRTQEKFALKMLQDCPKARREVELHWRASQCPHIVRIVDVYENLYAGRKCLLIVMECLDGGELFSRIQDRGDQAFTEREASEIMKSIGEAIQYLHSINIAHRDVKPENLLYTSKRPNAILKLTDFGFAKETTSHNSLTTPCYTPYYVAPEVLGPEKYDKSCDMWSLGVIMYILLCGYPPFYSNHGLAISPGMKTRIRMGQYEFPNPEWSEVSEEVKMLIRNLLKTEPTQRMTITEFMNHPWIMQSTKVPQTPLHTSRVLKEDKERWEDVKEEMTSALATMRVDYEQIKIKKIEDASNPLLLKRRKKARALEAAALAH
For data set [6], the target named is T1, MAP kinase-activated protein kinase 2. Kind of data set: Inhibition of MK2 in anisomycin-stimulated human THP1 cells assessed as reduction in hsp27 phosphorylation at Ser78 by FACS analysis. For orientation: In flow cytometry, cells or beads pass a laser one at a time.
A short description of data set [7]: Lipophilicity, log D of compound at pH 7.4. The conditions noted are these: buffer.
Data set [8] can be described thus: as §1. The format is ADME, organism-based. The conditions noted are these: Sprague-Dawley, in vivo.
A further data set relates to PBMC. Kind of data set: cells. The note with it: Homo sapiens.
Another data set concerns Blood. Kind of data set: tissue or blood. The note with it: Homo sapiens.
Data set [9] is described as follows: Aqueous solubility of the compound. The format is physicochemical. The note with it: buffer.
Data set [10] in a line: Oral bioavailability in Sprague-Dawley rat at 3 mg/kg administered as single cassette dose measured over 8 hrs by LC-MS/MS analysis. The conditions noted are these: in vivo. The format is ADME, organism-based.
For data set [11], the system named is Rattus norvegicus. Kind of data set: Dose normalized AUC in Sprague-Dawley rat at 3 mg/kg, po administered as single cassette dose measured over 8 hrs by LC-MS/MS analysis. The conditions noted are these: in vivo. The class given is ADME, organism-based.
The nature of data set [12]: Clearance in Sprague-Dawley rat at 1 mg/kg, iv administered as single cassette dose measured over 8 hrs by LC-MS/MS analysis. The note with it: in vivo. The class given is ADME, organism-based.

In brackets after ≈: the same amount, converted by molar mass.

By clearance is commonly meant the volume of plasma or blood freed of the substance per unit of time. Read a low clearance as inefficient removal. Usually IC50 stands for the concentration needed to halve the response being measured. A word on the logD: it is lipophilicity at a set pH, counting ionised and neutral species. Low readings indicate a more hydrophilic compound, high ones a more lipophilic compound. The term bioavailability denotes dose-corrected exposure relative to a reference, in per cent. Low values mean poor availability, high ones good availability. One may read the solubility as the dissolved amount per volume that the medium holds. Read a high solubility as a readily soluble substance.

For the compound `CN1CC2(CNC(=O)c3c2[nH]c2c3CCc3cnc(-c4cccc(F)c4)nc3-2)C1`, in data set [1], the “log(permeability)” value is listed as -4.6. The compound also showed a F in the data set with Rattus norvegicus [2] of 151%. The compound also showed an AUC/dose with Rattus norvegicus [3] of 2154 nmol·h/L. The clearance in [4] came to 30 mL/min/kg.

With `COc1ccc(-c2ncc3c(c2F)-c2[nH]c4c(c2CC3)C(=O)NCC42CN(C)C2)cn1`, the 50% inhibitory concentration (IC50) was less than 3 nM in data set [5], 480 nM in data set [6], 490 nM with PBMC and 590 nM with Blood. Also, the “log(permeability)” value in data set [1] is -4.8. In addition, the logD in [7] was 2.8. The bioavailability in data set [8] was determined as 77%. In the data set with Rattus norvegicus [3], this compound came in with an AUC/dose of 1766 nmol·h/L. This compound returned a clearance in [4] of 19 mL/min/kg.

For `COc1ccc(-c2ncc3c(c2F)-c2[nH]c4c(c2CC3)C(=O)NCC42CN(C)C2)cc1F`, in data set [1], the “log(permeability)” value is -4.5. Also, the log distribution coefficient (logD) in data set [7] was found to be 3.3. In data set [8], the bioavailability turned out to be 60%. Further, the AUC/dose in the data set with Rattus norvegicus [3] was determined as 1301 nmol·h/L. In data set [4], the clearance is 20 mL/min/kg. Also, the IC50 worked out at 240 nM in the data set with PBMC and 800 nM with Blood.

Compound `CN1CC2(CNC(=O)c3c2[nH]c2c3CCc3cnc(-c4cccc(F)c4)c(F)c3-2)C1` showed a solubility in data set [9] of 4 µg/mL (≈ 9.84 µM). Also, the “log(permeability)” value in data set [1] is reported as -4.1. In data set [7], this compound returned a logD of 3.2. Further, the bioavailability in data set [8] was determined as 81%. This compound yielded an AUC/dose with Rattus norvegicus [3] of 3486 nmol·h/L. In [4], the clearance amounted to 11 mL/min/kg. Moreover, the IC50 with PBMC amounted to 550 nM; with Blood, 1650 nM.

For the compound `CN1CC2(CNC(=O)c3c4c(n(C)c32)-c2cc(-c3cccc(Cl)c3)ncc2CC4)C1`, the “log(permeability)” value in [1] is recorded as -3.9. This compound gave a logD in data set [7] of 3.7. The compound also returned a bioavailability in data set [10] of 53%. Moreover, the AUC/dose in the data set with Rattus norvegicus [11] came to 2415 nmol·h/L. Moreover, the clearance in [12] is 10 mL/min/kg.

The compound `CN1CC2(CNC(=O)c3c2[nH]c2c3CCc3cnc(-c4cccc(F)c4)cc3-2)C1` yielded a solubility in [9] of 32 µg/mL (≈ 82.4 µM). Further, the “log(permeability)” value in data set [1] is listed as -5.2. The compound also registered a logD in data set [7] of 3.4. In data set [8], the bioavailability turned out to be 27%. The compound also showed an AUC/dose with Rattus norvegicus [3] of 121 nmol·h/L. In [4], this compound registered a clearance of 100 mL/min/kg. In the data set with Blood, this compound gave a 50% inhibitory concentration (IC50) of 670 nM.
